ChEMBL document CHEMBL1949614, “Advent of Imidazo[1,2-a]pyridine-3-carboxamides with Potent Multi- and Extended Drug Resistant Antituberculosis Activity” (ACS Med Chem Lett, 2011)
Values after ≈ are worked out from the molar mass of the structure shown.

Assays:
Assay type in all cases: functional
[1] = system: Mycobacterium tuberculosis; experiment: Antitubercular activity against multidrug-resistant isoniazid, rifampicin, ethambutol, pyrazinamide, rifabutin, thioacetazone/ethionamide-resistant Mycobacterium tuberculosis clinical isolate by microbroth dilution assay
[2] = system: Mycobacterium tuberculosis; experiment: Antitubercular activity against extensively drug-resistant isoniazid, rifampicin, ethambutol, streptomycin, p-aminosalicylic acid, ofloxacin-resistant Mycobacterium tuberculosis clinical isolate by microbroth dilution assay
[3] = system: Mycobacterium tuberculosis; experiment: Antitubercular activity against multidrug-resistant isoniazid, rifampicin, ethambutol, kanamycin, p-aminosalicylic acid-resistant Mycobacterium tuberculosis clinical isolate by microbroth dilution assay
[4] = system: Mycobacterium tuberculosis; experiment: Antitubercular activity against multidrug-resistant isoniazid, cycloserine, p-aminosalicylic acid, ethionamide/thioacetazone-resistant Mycobacterium tuberculosis clinical isolate by microbroth dilution assay
[5] = system: Mycobacterium tuberculosis; experiment: Antitubercular activity against multidrug-resistant isoniazid, rifampicin, ethambutol, rifabutin-resistant Mycobacterium tuberculosis clinical isolate by microbroth dilution assay
[6] = system: Mycobacterium tuberculosis; experiment: Antitubercular activity against multidrug-resistant isoniazid, rifampicin, ethambutol, streptomycin, p-aminosalicylic acid-resistant Mycobacterium tuberculosis by microbroth dilution assay
[7] = system: Mycobacterium tuberculosis; experiment: Antitubercular activity against extensively drug-resistant isoniazid, rifampicin, ethambutol, kanamycin, p-aminosalicylic acid, ethionamide/thioacetazone, ofloxacin-resistant Mycobacterium tuberculosis clinical isolate by microbroth dilution assay
[8] = system: Mycobacterium tuberculosis; experiment: Antitubercular activity against extensively drug-resistant isoniazid, rifampicin, ethambutol, streptomycin, cycloserine, p-aminosalicylic acid, ethionamide/thioacetazone, ofloxacin-resistant Mycobacterium tuberculosis clinical isolate by microbroth dilution assay
[9] = system: Mycobacterium tuberculosis; experiment: Antitubercular activity against multidrug-resistant isoniazid, rifampicin, ethambutol, pyrazinamide, streptomycin, kanamycin, p-aminosalicylic acid, ethionamide/thioacetazone-resistant Mycobacterium tuberculosis clinical isolate by microbroth dilution assay
[10] = system: Mycobacterium tuberculosis; experiment: Antitubercular activity against multidrug-resistant isoniazid, rifampicin, ethambutol, pyrazinamide, streptomycin, p-aminosalicylic acid-resistant Mycobacterium tuberculosis clinical isolate by microbroth dilution assay

Cc1ccn2c(C(=O)NCc3ccccc3)c(C)nc2c1 showed an MIC90 [1] of 0.14 µM (≈ 0.0391 µg/mL), an MIC90 [2] of 0.14 µM (≈ 0.0391 µg/mL) and an MIC90 [3] of 0.28 µM (≈ 0.0782 µg/mL). It also gave an MIC90 [4] of 1.12 µM (≈ 0.313 µg/mL), an MIC90 [5] of 0.14 µM (≈ 0.0391 µg/mL) and an MIC90 [6] of 2.24 µM (≈ 0.626 µg/mL). The MIC90 [7] was 0.07 µM (≈ 0.0196 µg/mL), the MIC90 [8] was 0.07 µM (≈ 0.0196 µg/mL) and the MIC90 [9] was 0.07 µM (≈ 0.0196 µg/mL). The MIC90 [10] was 1.12 µM (≈ 0.313 µg/mL).
COc1cccc(CNC(=O)c2c(C)nc3cc(C)ccn23)c1 was tested, and the MIC90 [1] was 0.06 µM (≈ 0.0186 µg/mL), the MIC90 [2] was 0.02 µM (≈ 0.00619 µg/mL) and the MIC90 [3] was 0.13 µM (≈ 0.0402 µg/mL). For the same compound, the MIC90 [4] was 0.13 µM (≈ 0.0402 µg/mL), the MIC90 [5] was ≤ 0.03 µM and the MIC90 [6] was 1.01 µM (≈ 0.312 µg/mL). For the same compound, the MIC90 [7] was 0.02 µM (≈ 0.00619 µg/mL), the MIC90 [8] was 0.03 µM (≈ 0.00928 µg/mL) and the MIC90 [9] was ≤ 0.03 µM. It also gave an MIC90 [10] of 0.06 µM (≈ 0.0186 µg/mL).
Cc1ccn2c(C(=O)NCc3cccc(F)c3)c(C)nc2c1 showed an MIC90 [1] of 0.06 µM (≈ 0.0178 µg/mL), an MIC90 [2] of 0.03 µM (≈ 0.00892 µg/mL) and an MIC90 [3] of 0.26 µM (≈ 0.0773 µg/mL). The MIC90 [4] was 0.26 µM (≈ 0.0773 µg/mL), the MIC90 [5] was 0.13 µM (≈ 0.0387 µg/mL) and the MIC90 [6] was 0.26 µM (≈ 0.0773 µg/mL). It also gave an MIC90 [7] of 0.03 µM (≈ 0.00892 µg/mL), an MIC90 [8] of 0.07 µM (≈ 0.0208 µg/mL) and an MIC90 [9] of 0.06 µM (≈ 0.0178 µg/mL). It also gave an MIC90 [10] of 0.06 µM (≈ 0.0178 µg/mL).
